Consider 27 compounds from patent US20140187548A1, “6 SUBSTITUTED IMIDAZOPYRAZINES FOR USE AS MPS-1 AND TKK INHIBITORS IN THE TREATMENT OF HYPERPROLIFERATIVE DISORDERS” (BAYER INTELLECTUAL PROPERTY GMBH, priority 2010, published 2014).

The structures appear in SMILES notation.

The experiment addresses T1, human kinase Mps-1 (Homo sapiens, UniProt P33981).
T1 construct: N-terminally GST-tagged human full length recombinant Mps-1 kinase; GST (N); purchased Invitrogen, Karslruhe, Germany PV4071
T1 sequence (P33981 1-857): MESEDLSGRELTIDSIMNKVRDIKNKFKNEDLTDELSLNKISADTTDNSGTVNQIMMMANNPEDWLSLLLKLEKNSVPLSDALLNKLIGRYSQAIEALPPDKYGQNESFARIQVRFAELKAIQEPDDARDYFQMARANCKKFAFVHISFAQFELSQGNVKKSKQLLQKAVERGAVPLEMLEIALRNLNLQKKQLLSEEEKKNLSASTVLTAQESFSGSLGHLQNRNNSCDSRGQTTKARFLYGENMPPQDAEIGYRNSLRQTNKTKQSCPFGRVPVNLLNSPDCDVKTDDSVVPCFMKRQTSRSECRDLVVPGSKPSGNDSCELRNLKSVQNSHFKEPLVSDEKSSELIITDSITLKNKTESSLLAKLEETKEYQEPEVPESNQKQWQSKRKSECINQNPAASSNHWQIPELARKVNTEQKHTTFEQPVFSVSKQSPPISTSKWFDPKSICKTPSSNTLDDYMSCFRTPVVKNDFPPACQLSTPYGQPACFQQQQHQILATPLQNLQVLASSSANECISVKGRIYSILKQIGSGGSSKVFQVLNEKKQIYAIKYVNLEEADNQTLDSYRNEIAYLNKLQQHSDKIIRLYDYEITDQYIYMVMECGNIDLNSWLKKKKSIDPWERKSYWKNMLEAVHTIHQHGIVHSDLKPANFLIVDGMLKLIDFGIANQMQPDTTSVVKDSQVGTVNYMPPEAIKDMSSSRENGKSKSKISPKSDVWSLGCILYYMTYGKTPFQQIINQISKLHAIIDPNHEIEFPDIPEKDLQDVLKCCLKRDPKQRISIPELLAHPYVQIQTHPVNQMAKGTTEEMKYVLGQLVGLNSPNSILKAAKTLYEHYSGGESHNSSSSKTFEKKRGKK
Description: Mps-1 kinase assay (TR-FRET). Type of experiment: biochemical. Conditions: N-terminally GST-tagged human full length recombinant Mps-1; 10 μM ATP; 1 μM peptide substrate; 15 min pre-incubation; 60 min at 22° C. The essentials: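 TR-FRET read-out: after 1 h binding at 22° C, Eu-labelled anti-phospho-Ser/Thr antibody transfers to SA-XLent on the phosphorylated biotinylated peptide. The enzyme is GST-tagged full-length human Mps-1, typically about 1 nM final, in the linear range.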
(In general: TR-FRET usually uses a lanthanide donor and a delayed reading to cut background.)

As usually defined, the IC50 is the point on the concentration scale where inhibition reaches its midpoint. On to `Cc1cc(-c2cnc3c(NCCC(F)(F)F)nc(-c4ccc(CO)cc4)cn23)ccc1C(=O)NC1CC1` [Example 1-123, N-cyclopropyl-4-{6-[4-(hydroxymethyl)phenyl]-8-[(3,3,3-trifluoropropyl)amino]imidazo[1,2-a]pyrazin-3-yl}-2-methyl-benzamide], for which the IC50 stood at 1.2 nM.

As to `Cc1cc(-c2cnc3c(NCCC(F)(F)F)nc(-c4ccc(F)c(CO)c4)cn23)ccc1C(=O)NC1CC1` [Example 1-124, N-cyclopropyl-4-{6-[4-fluoro-3-(hydroxymethyl)phenyl]-8-[(3,3,3-tri-fluoropropyl)amino]imidazo[1,2-a]pyrazin-3-yl}-2-methylbenzamide], the IC50 was 1.1 nM. Under `CC(C)(O)CNc1nc(-c2ccccc2)cn2c(-c3ccc(C(=O)NC4CC4)cc3)cnc12` [Example 1-125, N-cyclopropyl-4-{8-[(2-hydroxy-2-methylpropyl)amino]-6-phenylimidazo[1,2-a]pyrazin-3-yl}benzamide] stands 1.1 nM; under `CC(C)CNc1nc(-c2ccc(S(=O)(=O)NC3CC3)cc2)cn2c(-c3ccc(C(=O)NC4CC4)cc3)cnc12` [Example 1-126, N-cyclopropyl-4-{6-[4-(cyclopropylsulfamoyl)phenyl]-8-[(2-methylpropyl)amino]imidazo[1,2-a]pyrazin-3-yl}benzamide], 4.4 nM. Take `CC(C)CNc1nc(-c2ccc(SC3CC3)cc2)cn2c(-c3ccc(C(=O)NC4CC4)cc3)cnc12` [Example 1-127, N-cyclopropyl-4-{6-[4-(cyclopropylsulfanyl)phenyl]-8-[(2-methylpropyl)amino]imidazo[1,2-a]pyrazin-3-yl} benzamide]: the IC50 is 32.2 nM.

Turning to `O=C(NC1CC1)c1ccc(-c2cnc3c(NCC4CCCCC4)nc(-c4cccc5ncccc45)cn23)cc1` [Example 1-128, 4-{8-[(cyclohexylmethyl)amino]-6-(quinolin-5-yl)imidazo[1,2-a]pyrazin-3-yl}-N-cyclopropylbenzamide], the IC50 amounted to 1.2 nM. Under `CC(C)CNc1nc(-c2cccc(S(N)(=O)=O)c2)cn2c(-c3ccc(C(=O)NC4CC4)cc3)cnc12` [Example 1-129, N-cyclopropyl-4-[8-(isobutylamino)-6-(3-sulfamoylphenyl)imidazo [1,2-a]pyrazin-3-yl] benzamide] stands 1.9 nM. On to `CC(C)CNc1nc(-c2cccc(S(=O)(=O)N3CCOCC3)c2)cn2c(-c3ccc(C(=O)NC4CC4)cc3)cnc12` [Example 1-130, N-cyclopropyl-4-{8-(isobutylamino)-6-[3-(morpholin-4-ylsulfonyl)phenyl]imidazo[1,2-a]pyrazin-3-yl}benzamide], for which the IC50 is 6.7 nM. `CC(C)(O)CNc1nc(-c2ccc(F)cc2)cn2c(-c3ccc(C(=O)NC4CC4)cc3)cnc12` [Example 1-131, N-cyclopropyl-4-{6-(4-fluorophenyl)-8-[(2-hydroxy-2-methylpropyl)amino]imidazo[1,2-a]pyrazin-3-yl}benzamide]: the IC50 was 1.6 nM. Turning to `CC(C)(O)CNc1nc(-c2ccccc2CO)cn2c(-c3ccc(C(=O)NC4CC4)cc3)cnc12` [Example 1-132, N-cyclopropyl-4-{6-[2-(hydroxymethyl)phenyl]-8-[(2-hydroxy-2-methylpropyl)amino]imidazo[1,2-a]pyrazin-3-yl}benzamide], the IC50 is 10.3 nM. As to `CC(C)(O)CNc1nc(-c2cc(F)c(F)cc2F)cn2c(-c3ccc(C(=O)NC4CC4)cc3)cnc12` [Example 1-133, N-cyclopropyl-4-{8-[(2-hydroxy-2-methylpropyl)amino]-6-(2,4,5-trifluoro-phenyl)imidazo[1,2-a]pyrazin-3-yl}benzamide], the IC50 turned out to be 6.1 nM. Then `CC(C)(O)CNc1nc(-c2cc(F)c(F)c(F)c2)cn2c(-c3ccc(C(=O)NC4CC4)cc3)cnc12` [Example 1-134, N-cyclopropyl-4-{8-[(2-hydroxy-2-methyl-propyl)amino]-6-(3,4,5-trifluorophenyl)imidazo[1,2-a]pyrazin-3-yl} benzamide], with 31.5 nM; and `Cc1cc(-c2cn3c(-c4ccc(C(=O)NC5CC5)cc4)cnc3c(NCC(C)(C)O)n2)ccc1F` [Example 1-135, N-cyclopropyl-4-{6-(4-fluoro-3-methylphenyl)-8-[(2-hydroxy-2-methylpropyl)amino]imidazo [1,2-a]pyrazin-3-yl} benzamide], with 8.4 nM; and `Cc1cc(-c2cnc3c(NCC(C)(C)O)nc(-c4ccc(F)cc4)cn23)ccc1C(=O)NC1CC1` [Example 1-136, N-cyclopropyl-4-{6-(4-fluorophenyl)-8-[(2-hydroxy-2-methylpropyl)amino]imidazo[1,2-a]pyrazin-3-yl}-2-methylbenzamide], with 7.9 nM.

As to `Cc1cc(-c2cnc3c(NCC(C)(C)O)nc(-c4ccccc4)cn23)ccc1C(=O)NC1CC1` [Example 1-137, N-cyclopropyl-4-{8-[(2-hydroxy-2-methylpropyl)amino]-6-phenylimidazo[1,2-a]pyrazin-3-yl}-2-methylbenzamide], the IC50 is 5.1 nM.

Take `Cc1cc(-c2cnc3c(NCCC(F)(F)F)nc(-c4ccccc4CO)cn23)ccc1C(=O)NC1CC1` [Example 1-138, N-cyclopropyl-4-{6-[2-(hydroxymethyl)phenyl]-8-[(3,3,3-trifluoro-propyl)amino]imidazo[1,2-a]pyrazin-3-yl}-2-methylbenzamide]: the IC50 amounted to 1.9 nM. In the case of `O=C(NC1CC1)c1ccc(-c2cnc3c(NCCO)nc(-c4ccccc4)cn23)cc1` [Example 2-1, N-cyclopropyl-4-{8-[(2-hydroxyethyl)amino]-6-phenylimidazo[1,2-a]pyrazin-3-yl}benzamide], the IC50 was found to be 2.7 nM. `CCN(CC)CCNc1nc(-c2ccccc2)cn2c(-c3ccc(C(=O)NC4CC4)cc3)cnc12` [Example 2-2, N-cyclopropyl-4-(8-{[2-(diethylamino)ethyl]amino}-6-phenylimidazo[1,2-a]pyrazin-3-yl)benzamide]: the IC50 stood at 47.7 nM. As to `O=C(NC1CC1)c1ccc(-c2cnc3c(NCCCN4CCOCC4)nc(-c4ccccc4)cn23)cc1` [Example 2-3, N-cyclopropyl-4-(8-{[3-(morpholin-4-yl)propyl]amino}-6-phenylimidazo[1,2-a]pyrazin-3-yl)benzamide], the IC50 was determined as 6.9 nM.

On to `CC(C)CCNc1nc(-c2ccccc2)cn2c(-c3ccc(C(=O)NC4CC4)cc3)cnc12` [Example 2-4, N-cyclopropyl-4-{8-[(3-methylbutyl)amino]-6-phenylimidazo[1,2-a]pyrazin-3-yl}benzamide], for which the IC50 came to 3.2 nM. Then `Cc1ccccc1CNc1nc(-c2ccccc2)cn2c(-c3ccc(C(=O)NC4CC4)cc3)cnc12` [Example 2-5, N-cyclopropyl-4-{8-[(2-methylbenzyl)amino]-6-phenylimidazo[1,2-a]pyrazin-3-yl}benzamide], with 6.5 nM; and `O=C(NC1CC1)c1ccc(-c2cnc3c(NCc4cccc(Cl)c4)nc(-c4ccccc4)cn23)cc1` [Example 2-6, 4-{8-[(3-chlorobenzyl)amino]-6-phenylimidazo [1,2-a]pyrazin-3-yl}-N-cyclopropylbenzamide], with 13.8 nM.

With `O=C(NC1CC1)c1ccc(-c2cnc3c(NCCc4ccccc4)nc(-c4ccccc4)cn23)cc1` [Example 2-7, N-cyclopropyl-4-{6-phenyl-8-[(2-phenylethyl)amino]imidazo[1,2-a]pyrazin-3-yl} benzamide], the IC50 amounted to 25 nM. Then `O=C(NC1CC1)c1ccc(-c2cnc3c(NCC4CCCO4)nc(-c4ccccc4)cn23)cc1` (stereo not drawn) [Example 2-8, N-cyclopropyl-4-{6-phenyl-8-[(tetrahydrofuran-2-ylmethyl)amino]imidazo[1,2-a]pyrazin-3-yl}benzamide], with 2.1 nM; and `O=C(NC1CC1)c1ccc(-c2cnc3c(NCCCN4CCCC4=O)nc(-c4ccccc4)cn23)cc1` [Example 2-9, N-cyclopropyl-4-(8-{[3-(2-oxopyrrolidin-1-yl)propyl]amino}-6-phenylimidazo[1,2-a]pyrazin-3-yl)benzamide], with 4.8 nM. As for `CN1CCCC1CCNc1nc(-c2ccccc2)cn2c(-c3ccc(C(=O)NC4CC4)cc3)cnc12` (stereo not drawn) [Example 2-10, N-cyclopropyl-4-(8-{[2-(1-methylpyrrolidin-2-yl)ethyl]amino}-6-phenylimidazo[1,2-a]pyrazin-3-yl)benzamide], the IC50 is 16.6 nM.

On to `O=C(NC1CC1)c1ccc(-c2cnc3c(NCCN4CCCCC4)nc(-c4ccccc4)cn23)cc1` [Example 2-11, N-cyclopropyl-4-(6-phenyl-8-{[2-(piperidin-1-yl)ethyl]amino}imidazo[1,2-a]pyrazin-3-yl)benzamide], for which the IC50 worked out at 31.6 nM.
